# Test results published in patent US6372792B1, “Method for treating anxiety, anxiety disorders and insomnia” (priority 1996, dated 2002).
# Experiments:
# Assay type in all cases: in vivo, human
# [1] = tested on: chronic severe generalized anxiety disorder with marked insomnia and depression; assay: Case History 1: patient treated with gabapentin; conditions: initiated at a low dose
# Protocol: The patient is a retired patient. […] In their medical history, there is a cervical laminectomy (1988). They report residual pain and weakness in the right arm and right leg and chronic neck pain. They have a history of three months of depression with no treatment (1989) and a history of chronic severe generalized anxiety disorder.
# In December 1994, the patient had been taking a benzodiazepine, clonazepam 2.5 mg/day, for the last five years when their anxiety and depression became much worse. Anxiety was associated with marked insomnia and significant situational stressors (financial and marital). […] Patient is now functional for the first time in many years. Improvement continues as of this day. […] Improvement persists.
# [2] = tested on: fast cycling manic depressive illness with anxiety associated with depression; assay: Case History 2: patient treated with gabapentin; conditions: June to December 1992
# Protocol: A person is a retired patient with a family history of bipolar affective illness. The patient has been treated for manic-depressive illness since they experienced their first depressive episode and was hospitalized several times for mania and depression.
# […]), the patient was hospitalized for an episode of acute mania. After that, they were treated with lithium, tryptophan, nicotinamide, clonazepam, Premarin®, Provera® and Overal®. The patient was re-hospitalized for a manic episode […] (1982). They have been treated with various psychotropic drugs, especially: lithium, tryptophan, and clonazepam. Lithium was discontinued in October 1983 until 1985. They were given tryptophan, lecithin and female hormones for control of a severe rapid-cycling bipolar disorder. Fluoxetine, as well as, antiepileptics (carbamazepine and valproic acid) were also added to their treatment.
# Due to the patient's fast cycling manic depressive illness, their medication is regularly adjusted. Since 1991 magnesium was added to their regular medication. […] In April 1993, risperidone was initiated and in March 1994 lithium was discontinued. They are currently treated with risperidone, gabapentin 1800 mg QD (initiated in August 1994), clonazepam and ritanserin was recently added to their treatment in an attempt to improve their mood. They also take magnesium and lecithin.
# [3] = tested on: panic attacks and anxiety disorder; assay: Case History 3: patient treated with gabapentin; conditions: for adverse effect: human, in vivo
# Protocol: A person is a single who is working as a freelance writer. […] They were hospitalized because of severe depression and a suicide attempt by drug overdose. The patient has taken lithium since 1973. They have also had panic attacks since 1978.
# In January 1994, the patient was depressed and valproic acid was initiated with lithium and clonazepam. […] Gabapentin 300 mg BID up to 300 mg TID was initiated in their treatment.
# [4] = tested on: obsessive compulsive disorder (OCD), anxiety, paranoid delusions; assay: Case History 5: patient treated with gabapentin
# Excerpt: The patient is a single person who is still studying at University. Their medical history is unremarkable. The patient was first seen by a psychiatrist and followed for obsessive compulsive disorder (OCD) in the United Emirates; the patient tended toward isolativeness. Also, they developed a tic disorder and complained of anxiety.
# In February 1994, the patient developed intense paranoid ideation and became more withdrawn. Over the previous two years, the patient had suffered from paranoid delusions and auditory hallucinations. They stopped taking their neuroleptic medication in mid-December while they were a University student. They were admitted as an inpatient in March 1994. […] The patient was discharged with clozapine and lorazepam. In June, the patient was referred for Follow-Up where an anticonvulsant drug, valproic acid was added to potentiate clozapine, but discontinued in August 1994.
# In February 1995, gabapentin was added to the patient's treatment. […] Currently, the patient takes clozpine 125 mg BID, […], gabapentin 500 mg HS and procyclidine 5 mg BID.
structure (smiles),measurement,setting,value
CNCCC(Oc1ccc(C(F)(F)F)cc1)c1ccccc1 (stereo not drawn) [Fluoxetine],clinical response (anxiety and depression),[1],made the patient worse
CCCC(CCC)C(=O)O [valproic acid],adverse effect,[2],the patient was losing hair
same,adverse effect,[3],they were losing their hair
same,depression,"[3]; initiated with lithium and clonazepam, two weeks later",the patient improved
"NCC1(CC(=O)O)CCCCC1 [gabapentin, (1-aminomethyl)-1-cyclohexaneacetic acid]",adverse effect,[4]; during the increase of gabapentin,dizziness during the increase of gabapentin but this subsided
same,adverse effect,[3],the patient complained of sedation
CN[C@H]1CC[C@@H](c2ccc(Cl)c(Cl)c2)c2ccccc21 [sertraline],clinical response (anxiety and depression),[1],made the patient worse
OC(CCN1CCCC1)(c1ccccc1)C1CCCCC1 (stereo not drawn) [procyclidine],akathisia,[4]; procyclidine 5 mg BID,they improved with this medication
Cc1nc2n(c(=O)c1CCN1CCC(c3noc4cc(F)ccc34)CC1)CCCC2 [risperidone],"psychotic symptoms (paranoid delusions, auditory hallucinations)","[4]; inpatient, March 1994",did not improve
